Source: patent US5340587A, “Liposome/bronchodilator method & System” (priority 1989, dated 1994)
Where a name gives a salt, the structure may show the parent alone.

How the values were obtained:
[1] = Table 1; cited from earlier work
[2] = test system: histamine-induced bronchoconstriction; assay: determination of therapeutic dose of free drug against histamine-induced bronchoconstriction; assay type: in vivo, guinea pigs; details: free form, inhalation
Description: The therapeutic doses of terbutaline sulfate, and salbutamol sulfate which were used in the present study were determined as follows. […] These drug doses, adjusted for the body weight of the test animal, were administered by inhalation in free form, and their effects on the histamine-induced bronchoconstriction were determined as above. MPS was also tested in the initial drug-dose study. […] The therapeutic doses per animal determined from the study were: 39 μg MPS (2× recommended dose); 15 μg terbutaline (2× recommended dose); and 1.5 μg salbutamol (1× recommended dose). The therapeutic dose of MPS is approximately 60 times less than the dose used in the experiments reported above, and in Example VI.

[3] = blood plasma MPS levels after inhalation (FIG. 2); assay type: in vivo; details: inhaled or intranasal
bronchoconstriction = details: free vs liposomal-entrapped MPS; cited from earlier work
[4] = in vivo
Description: This liposome-protective effect is illustrated in FIGS. 1A and 1B, which graph percent increases in heart rate, above a pre-drug level, in animals receiving a β2 -agonist in free (open squares), or liposomal form. The two liposomal formulations are characterized by relatively short drug-release half life (open circles, FIG. 1A), or a relatively long drug-release half life (closed circles, FIG. 1B). Heart rate was measured at 15, 45, 75, and 105 minutes after drug administration, and immediately before the animal received a bronchoconstricting dose of histamine by inhalation. […] With liposome-encapsulated drug, however, the increase in heart rate was substantially lower and more constant over the test period.

[5] = in vivo; cited from earlier work
[6] = test system: acetylcholine-induced bronchoconstriction; assay: protection against acetylcholine-induced bronchoconstriction (FIG. 4); assay type: in vivo, mongrel dogs; details: inhalation, high dose MPS, about four hours (FIG. 4)
Description: This parameter reflects the increase in airway resistance (bronchoconstriction) immediately after administration of acetylcholine to induce bronchoconstriction. That is, the percent protection indicates the percent increase in airway resistance relative to a pre-drug level, following acetylcholine. […] It is noted that this study involved relatively high dose levels of MPS (which were needed to protect against the severe bronchoconstriction induced by the acetylcholine aerosols).
This example examines the therapeutic effect of free and liposome-encapsulated metaproteranol sulfate (elevated dosage levels) on bronchoconstriction induced by aerosols of acetylcholine (ACH).
Two mongrel dogs, a 20 kg male and a 30 kg female, were anesthetized with an initial i.v. bolus injection of sodium thiopental (10 mg/kg body weight) and sodium pentabarbital (20 mg/kg body weight) and subsequent boluses of sodium thiopental every thirty minutes, or as needed, to maintain the dog in an anesthetized state over a four hour test period. […] Air flow was monitored by a pneumotachograph connected to the endotracheal tube and the respirator and connected to a differential pressure transducer. Transpulmonary pressure was monitored by a differential pressure transducer, one port connected to a side arm of the tracheal tube and the other end connected to the esophageal balloon catheter. […]

[7] = test system: histamine-induced bronchoconstriction; assay: histamine-induced bronchoconstriction: airway resistance and lung compliance (FIGS. 5, 6); assay type: in vivo, guinea pigs; details: terbutaline, relative to baseline
Description: The study described in Example VII illustrates the increased protection, at extended time periods, achievable with liposomal drug administration. Briefly summarizing the Example VII study, terbutaline sulfate or salbutamol sulfate, in either free or liposomal form, was administered by inhalation. At several times after drug administration, the test animal was challenged with aerosolized histamine, to induce bronchoconstriction. At the beginning of each test, prior to administration of the β2 -agonist, and immediately after each histamine dose, airway resistance and lung compliance in the animal were measured. Airway resistance, which is measured at points of equal lung volume during the breathing cycle, provides a measure of the resistance to gas flow through the large air passages of the lung. Lung compliance, which is measured at zero flow points in the breathing cycle, reflects the pressure changes required to effect the lung volume change over the breathing cycle. The resistance and compliance values determined at the beginning of the test serve as baseline values for determining the percentage changes in resistance and compliance, in response to histamine-induced bronchoconstriction.
Each time point was calculated as the difference in airway resistance shortly after histamine administration and at the beginning of the test (baseline value) divided by the baseline value. […]

Structure (SMILES) | Tc (transition temperature) [1] | protection against bronchoconstriction at the recommended dose [2] | therapeutic dose per animal [2] | other results
CCCCCCCCCCCCCC(=O)OC[C@H](COP(=O)([O-])OCC[N+](C)(C)C)OC(=O)CCCCCCCCCCCCC [DMPC, dimyristoyl phosphatidyl choline] | 23 C.° |  |  | 
CCCCCCCC/C=C\CCCCCCCC(=O)OCC(COP(=O)([O-])OCC[N+](C)(C)C)OC(=O)CCCCCCC/C=C\CCCCCCCC (stereo not drawn) [DOPC, dioleoyl phosphatidyl choline] | -22 C.° |  |  | 
CCCCCCCCCCCCCCCC(=O)OC[C@H](COP(=O)([O-])OCC[N+](C)(C)C)OC(=O)CCCCCCCCCCCCCCC [DPPC, dipalmitoyl phosphatidyl choline] | 41 C.° |  |  | 
CCCCCCCCCCCCCCCCCC(=O)OCC(COP(=O)([O-])OCC[N+](C)(C)C)OC(=O)CCCCCCCCCCCCCCCCC (stereo not drawn) [DSPC, distearoyl phosphatidyl choline] | 55 C.° |  |  | 
CC(C)NCC(O)c1cc(O)cc(O)c1 (stereo not drawn) [MPS, metaproteranol sulfate] |  | necessary to double the recommended dose in order to achieve effective protection | 39 µg | Cmax ([3]; free drug within 15 minutes, read-out: blood plasma MPS level, high): ~80 ng/mL; concentration at 2 h ([3]; over a two-hour period, read-out: blood plasma MPS level at end of test period): ~20 ng/mL; percent protection against bronchoconstriction (bronchoconstriction): about the same for both free drug and liposomal-entrapped drug; increase in heart rate [4]: relatively high initial heart rate increase, with a slow decline over the test period; plasma level course [5]: rapid drop in plasma levels; percent protection from ACH-induced bronchoconstriction [6]: substantially the same degree of protection against ACH-induced bronchoconstriction
CC(C)(C)NCC(O)c1ccc(O)c(CO)c1 (stereo not drawn) [salbutamol sulfate] |  | good protection against bronchoconstriction | 1.5 µg | 
CC(C)(C)NCC(O)c1cc(O)cc(O)c1 (stereo not drawn) [terbutaline sulfate] |  | necessary to double the recommended dose in order to achieve effective protection | 15 µg | increase in airway resistance, end of test period ([7]; 115 minutes (FIG. 5A)): over 160%; increase in airway resistance, initial ([7]; first histamine challenge (FIG. 5A)): 60%
